From patent US5708018A, “2-aminoindans as selective dopamine D3 ligands” (Pharmacia & Upjohn Company, priority 1996, dated 1998)
Read-outs that look alike come from different tables or passages of the source.

How the values were obtained:
D2 = target: T1, D2 (Rattus norvegicus, UniProt P61169); assay: Competition binding, cloned mammalian D2 receptors expressed in CHO-K1 cells, [3H]-5-(dipropylamino)-5,6-dihydro-4H-imidazo(4,5,1-ij)quinolin-2(1H)-one (R-enantiomer); settings: radioligand 2 nM, IC50 from one-site fit, Ki by Chen-Prushoff equation
T1 construct: expressed in transfected cells; host or cells: CHO-K1
Description: (§1) Competition binding experiments employed eleven dilutions of test compounds competing with [^3 H]-5-(dipropylamino)-5,6-dihydro-4H-imidazo(4,5,1-ij)quinolin-2(1H)-one (R-enantiomer) (62 Ci/mmol, 2 nM) and [^3 H]-spiperone (107 Ci/mmol, 0.5 nM) for D2 and D3 binding sites, respectively. (Lahti, R. A., Eur. J. Pharmacol., 202, 289 (1991)) In each experiment, cloned mammalian receptors expressed in CHO-K1 cells were used. (Chio, C. L., Nature, 343, 266 (1990); and Huff, R. M., Mol. Pharmacol. (1993), in press). IC50 values were estimated by fitting the data to a one-site model by non-linear least squares minimization. Ki values were calculated with the Chen-Prushoff equation.

D3 = target: T2, D3 (Rattus norvegicus, UniProt P19020); assay: Competition binding, cloned mammalian D3 receptors expressed in CHO-K1 cells, [3H]-spiperone
T2 construct: expressed in transfected cells; host or cells: CHO-K1
Description: as §1

[1] = cloned mammalian receptors in CHO-K1 cells, [3H]-spiperone 0.5 nM, IC50 from one-site fit, Ki by Chen-Prushoff equation, read-out: D3 (ki)

T2 sequence (P19020 whole entry): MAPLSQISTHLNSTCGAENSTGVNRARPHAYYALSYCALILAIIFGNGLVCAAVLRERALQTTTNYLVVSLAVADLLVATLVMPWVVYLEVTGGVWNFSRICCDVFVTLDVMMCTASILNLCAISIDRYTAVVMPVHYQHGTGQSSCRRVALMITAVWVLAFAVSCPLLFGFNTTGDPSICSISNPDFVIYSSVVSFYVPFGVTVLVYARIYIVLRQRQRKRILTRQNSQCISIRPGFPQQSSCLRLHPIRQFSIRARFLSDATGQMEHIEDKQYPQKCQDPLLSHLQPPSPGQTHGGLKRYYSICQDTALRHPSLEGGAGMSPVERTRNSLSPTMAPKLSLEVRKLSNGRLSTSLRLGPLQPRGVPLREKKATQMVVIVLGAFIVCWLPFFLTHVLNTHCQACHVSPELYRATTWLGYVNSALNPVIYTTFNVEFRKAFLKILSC
T1 sequence (P61169 whole entry): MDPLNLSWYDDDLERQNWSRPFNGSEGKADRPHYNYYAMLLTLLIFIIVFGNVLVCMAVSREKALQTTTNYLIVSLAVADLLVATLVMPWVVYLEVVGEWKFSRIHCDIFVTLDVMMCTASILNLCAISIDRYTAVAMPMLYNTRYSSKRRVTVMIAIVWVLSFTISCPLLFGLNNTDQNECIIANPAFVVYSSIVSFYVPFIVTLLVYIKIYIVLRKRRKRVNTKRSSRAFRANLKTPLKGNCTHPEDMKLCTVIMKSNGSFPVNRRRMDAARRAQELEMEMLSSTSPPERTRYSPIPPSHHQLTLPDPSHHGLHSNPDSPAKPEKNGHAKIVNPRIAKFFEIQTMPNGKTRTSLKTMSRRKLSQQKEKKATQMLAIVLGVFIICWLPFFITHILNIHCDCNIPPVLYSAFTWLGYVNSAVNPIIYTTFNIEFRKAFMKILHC

Ki (D3; [1]) [nM]	Structure (SMILES)	Ki (D2) [nM]	Ki (D3) [nM]
45	CCCN(CCC)C1Cc2cc(OS(=O)(=O)c3ccc(C)cc3)c(OS(=O)(=O)c3ccc(C)cc3)cc2C1 [Example 32, 5,6 di-toluenesulfonyloxy-2-(di-n-propylamino)indan]	291	–
–	CCCN(CCC)C1Cc2cc(O)c(C(=O)OC)cc2C1 (centres unmarked) [Example 10, 5-(carbomethoxy)-6-hydroxy-2-(di-N-propylamino)indan]	121	6.5
3.7	CCCN(CCC)C1Cc2ccc(OS(=O)(=O)c3ccc(C)cc3)cc2C1 (centres unmarked) [Example 17, Toluene-4-sulfonic acid 2-dipropylamino-indan-5-yl ester]	108	–
–	CCCN(CCC)C1Cc2ccc(OS(=O)(=O)C(F)(F)F)cc2C1 (centres unmarked) [Example 2]	350	31
